Laboratory results taken from ChEMBL document CHEMBL1201862, “PubChem BioAssay data set” (2004).
“And” between values parts separate entries of the source, which are not always exact repeats. Equal values may be shown once.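 Test compounds were applied to cells in 96-well plates for 48 hours at 5 doses. Here, GI50 denotes the concentration required for 50% inhibition of growth.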 The source made the active and inactive calls. Cut-off read from the data, not from the text of the source: active = GI50 up to about 1.1 µM and inactive = higher.

Legend:
Assay in all cases: NCI anticancer screen, dose series, 48 h
Hs-578T = system: Hs-578T
BT-549 = system: BT-549
T47D = system: T47D
LXFL 529 = system: LXFL 529
M19-MEL = system: M19-MEL
HOP-18 = system: HOP-18
KM-20L2 = system: KM-20L2

| Compound | GI50 (Hs-578T) | GI50 (BT-549) | GI50 (T47D) | GI50 (LXFL 529) | GI50 (M19-MEL) | GI50 (HOP-18) | GI50 (KM-20L2) |
| --- | --- | --- | --- | --- | --- | --- | --- |
| O=C(O)CCC(=O)Nc1ccc2ccccc2c1 | > 100 µM (inactive) | > 100 µM (inactive) | > 100 µM (inactive) |  |  |  |  |
| COc1ccc(-n2c(=O)c3nc(S)[nH]c3n(-c3ccc(OC)cc3)c2=S)cc1 |  | > 100 µM (inactive) | > 100 µM (inactive) |  |  |  |  |
| Cc1cc2ncn(CC(=O)O)c2cc1C | > 100 µM (inactive) | > 100 µM (inactive) | > 100 µM (inactive) |  |  |  |  |
| CC(=O)C1C(=O)C(C(C)=O)C2C3C=CC(C3)C12 (stereo not drawn) | > 100 µM (inactive) | > 100 µM (inactive) | > 100 µM (inactive) |  |  |  |  |
| O=C1C=C/C(=N\c2ccc3c(c2)C(Br)c2ccccc2-3)O1 (stereo not drawn) |  |  |  | 28.8 µM (inactive) | > 100 µM (inactive) |  |  |
| CN1CCOC(C(NC(=O)c2ccccc2)c2ccccc2)C1=O (stereo not drawn) |  |  |  |  | > 100 µM (inactive) | > 100 µM (inactive) | > 100 µM (inactive) |
| O=C(NC1CCCCCC1)C1C(=O)N(C2CCCCCC2)C(=O)/C1=N\O (stereo not drawn) |  |  |  | 31.8 µM (inactive) | 28.2 µM (inactive) | 48.9 µM (inactive) | 23.1 µM (inactive) |
| COc1ccc(NC(=S)c2ccoc2C)cc1CC(=O)OC(C)C | 45.2 µM (inactive) | > 10 µM (inactive) | 24.8 µM (inactive) |  |  |  |  |
| COC(=O)c1c(C(=O)OC)c2ccccn2c1-c1cc(C)cc2c1C(=O)C=CC2=O | 12.9 µM (inactive) |  | 4.21 µM (inactive) |  |  |  |  |
| Cc1c2c(OCC3CCCCO3)nn(C)c(=O)c2c(C)n1-c1ccccc1 (stereo not drawn) | 21.2 µM (inactive) | 19.7 µM (inactive) | 22.1 µM (inactive) |  |  |  |  |
| O=C(O)c1cnc(-n2[nH]c3c(c2=O)CCCC3)[nH]c1=O | > 100 µM (inactive) | > 100 µM (inactive) | > 100 µM (inactive) |  |  |  |  |
| COc1cc(OC)c(/C=C/c2cnc3ccccc3n2)c(OC)c1 | > 10 µM (inactive) | > 10 µM (inactive) | > 10 µM (inactive) |  |  |  |  |
| Cc1ccccc1-n1c(=O)nc2n(-c3ccc(C(C)(C)C)cc3)c3ccccc3cc-2c1=O | 24.7 µM (inactive) | 25.7 µM (inactive) | 26.2 µM (inactive) |  |  |  |  |
| O=P1(c2ccccc2)c2ccccc2CCc2ccccc21 | > 100 µM (inactive) | 99.5 µM (inactive) |  |  |  |  |  |
| CCCC(=O)c1ccc2c(ccc(=O)n2C)c1 |  |  |  | 84.5 µM (inactive) | > 100 µM (inactive) | 88.1 µM (inactive) | > 100 µM (inactive) |
| CCOc1cccc(/C=N/N=C2\C(=O)Nc3c(Cl)cc(Cl)cc32)c1O | > 100 µM (inactive) | 39.6 µM (inactive) |  |  |  |  |  |
| Brc1ccc2[nH]cc(-c3nc(-c4c[nH]c5ccccc45)cs3)c2c1 | 5.86 µM (inactive) | 7.52 µM (inactive) | 3.68 µM (inactive) |  |  |  |  |
| CCOP(=O)(OCC)C(c1ccc(F)cc1)N(C(=O)NC(F)(F)F)c1cccc(C(F)(F)F)c1 (stereo not drawn) | 59.8 µM (inactive) | > 100 µM (inactive) | 83.9 µM (inactive) |  |  |  |  |
| COC(=O)C1c2cc3c(cc2C(OC2OC(C)C(OC)C(C)(OC)C2OC)CC1(C)O)C(=O)c1c(O)cc2c(c1C3=O)OC1OC2(C)C(O)C([N+](C)(C)[O-])C1O (stereo not drawn) | 0.165 µM (active) | 0.179 µM (active) | 0.13 µM (active) |  |  |  |  |
| O=C(CN1CCOCC1)CC(O)(C(F)(F)F)C(F)(F)F | 35.6 µM (inactive) | > 100 µM (inactive) | 42.4 µM (inactive) |  |  |  |  |
| CC(CSC(=N)N)C(N)=O (stereo not drawn) | > 100 µM (inactive) | > 100 µM (inactive) | > 100 µM (inactive) |  |  |  |  |
| N#Cc1c(N)nc2c(/N=N\c3ccccc3)c(N)nn2c1Nc1ccccc1 | 1.06 µM (active) | 23.9 µM (inactive) |  |  |  |  |  |
| NC(=O)C(=O)C(c1ccccc1)S(=O)(=O)Cc1ccccc1 (stereo not drawn) |  | > 100 µM (inactive) | > 100 µM (inactive) |  |  |  |  |
| CC(=O)/C(=C\NC(N)=S)C(=O)Nc1ccccc1C | > 100 µM (inactive) | > 100 µM (inactive) | > 100 µM (inactive) |  |  |  |  |
| COc1cc(C2C3=C(COC3=O)Oc3cc4c(cc32)OCO4)ccc1OC(C)=O (stereo not drawn) | 0.112 µM (active) | 0.222 µM (active) | 0.565 µM (active) |  |  |  |  |
| O=C(O)CSc1cc(-c2ccccc2)nc2ccccc12 | 19.4 µM (inactive) | 32 µM (inactive) | 57.9 µM (inactive) |  |  |  |  |
| COc1cc2ccc1OCc1cccc(n1)COc1ccc(cc1OC)/C=N\c1ccc(cc1)-c1ccc(cc1)/N=C\2 | > 100 µM (inactive) | > 100 µM (inactive) | > 100 µM (inactive) |  |  |  |  |
| CCc1ccc2oc(-c3cc(O)c(-c4nc5cc(CC)ccc5o4)cc3O)nc2c1 | > 100 µM (inactive) |  | > 100 µM (inactive) |  |  |  |  |
| CCOC(=O)C(NC(=O)c1cccc(Cl)c1)(Nc1cccc(C)c1)C(F)(F)F (stereo not drawn) | 14.8 µM (inactive) | 13 µM (inactive) | 19 µM (inactive) |  |  |  |  |
| COc1ccccc1/C=C(/C)[N+](=O)[O-] | 4.55 µM (inactive) and 4.24 µM (inactive) |  | 1.44 µM (inactive) and 1.04 µM (active) |  |  |  |  |
